System: OVCAR-5 complex spheroid (HUVEC/MSC), viability % T/C
Experiment: Anticancer human tumor OVCAR-5 cell line growth inhibition [Asc];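 further: spheroids exposed to agents for 7 days before readout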;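 on viability, T/C: 100% = DMSO vehicle-treated wells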
Conditions: for IC50: curve of first compound; for viability, T/C: stronger effect = lower value
Outline: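 Concentration series start at each agent's clinical Cmax, or at 10 microM when none is established, and drop in half-log steps; agents are applied alone or together to complex spheroids built with HUVEC and hMSC.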

Compound: C#Cc1c(F)ccc2cc(O)cc(-c3ncc4c(N5CC6CCC(C5)N6)nc(OCC56CCCN5CC(F)C6)nc4c3F)c12 (stereo not given) + Cc1c(S(C)(=O)=O)c(-c2cc(F)cc(N3CCN(c4ccc(NS(=O)(=O)c5ccc(NC(CCN6CCC(C(=O)OCCCP(=O)(O)O)CC6)CSc6ccccc6)c(S(=O)(=O)C(F)(F)F)c5)cc4)CC3)c2)c(-c2ccc(Cl)cc2)n1C(C)C
- IC50 (second compound 0.1 µM): 5340 nM
- IC50 (second compound 0.316 µM): 4450 nM
- IC50 (second compound 1 µM): 3720 nM
- IC50 (second compound 3.16 µM): 2810 nM
- IC50 (second compound 10 µM): 3730 nM
- viability, T/C (second compound 0.1 µM, first compound 0.0316 µM): 96.7%
- viability, T/C (second compound 0.1 µM, first compound 0.1 µM): 107%
- viability, T/C (second compound 0.1 µM, first compound 0.316 µM): 102%
- viability, T/C (second compound 0.1 µM, first compound 1 µM): 78.7%
- viability, T/C (second compound 0.1 µM, first compound 3.16 µM): 69.3%
- viability, T/C (second compound 0.1 µM, first compound 10 µM): 30.3%
- viability, T/C (second compound 0.316 µM, first compound 0.0316 µM): 91.8%
- viability, T/C (second compound 0.316 µM, first compound 0.1 µM): 98.2%
- viability, T/C (second compound 0.316 µM, first compound 0.316 µM): 87.2%
- viability, T/C (second compound 0.316 µM, first compound 1 µM): 80.1%
- viability, T/C (second compound 0.316 µM, first compound 3.16 µM): 61.1%
- viability, T/C (second compound 0.316 µM, first compound 10 µM): 24.5%
- viability, T/C (second compound 1 µM, first compound 0.0316 µM): 89.7%
- viability, T/C (second compound 1 µM, first compound 0.1 µM): 107%
- viability, T/C (second compound 1 µM, first compound 0.316 µM): 90.1%
- viability, T/C (second compound 1 µM, first compound 1 µM): 75.9%
- viability, T/C (second compound 1 µM, first compound 3.16 µM): 56.3%
- viability, T/C (second compound 1 µM, first compound 10 µM): 21.7%
- viability, T/C (second compound 3.16 µM, first compound 0.0316 µM): 84.9%
- viability, T/C (second compound 3.16 µM, first compound 0.1 µM): 99.9%
- viability, T/C (second compound 3.16 µM, first compound 0.316 µM): 96.1%
- viability, T/C (second compound 3.16 µM, first compound 1 µM): 69%
- viability, T/C (second compound 3.16 µM, first compound 3.16 µM): 49.8%
- viability, T/C (second compound 3.16 µM, first compound 10 µM): 12.9%
- viability, T/C (second compound 10 µM, first compound 0.0316 µM): 133%
- viability, T/C (second compound 10 µM, first compound 0.1 µM): 116%
- viability, T/C (second compound 10 µM, first compound 0.316 µM): 118%
- viability, T/C (second compound 10 µM, first compound 1 µM): 88.5%
- viability, T/C (second compound 10 µM, first compound 3.16 µM): 56.6%
- viability, T/C (second compound 10 µM, first compound 10 µM): 12.7%

Compound: Cc1nc(N2CCC3(CC2)COC(C)C3N)c(CO)nc1Sc1ccnc(N)c1Cl (stereo not given) + Cc1c(S(C)(=O)=O)c(-c2cc(F)cc(N3CCN(c4ccc(NS(=O)(=O)c5ccc(NC(CCN6CCC(C(=O)OCCCP(=O)(O)O)CC6)CSc6ccccc6)c(S(=O)(=O)C(F)(F)F)c5)cc4)CC3)c2)c(-c2ccc(Cl)cc2)n1C(C)C
- IC50 (second compound 0.1 µM): 1900 nM
- IC50 (second compound 0.316 µM): 1130 nM
- IC50 (second compound 1 µM): 1190 nM
- IC50 (second compound 3.16 µM): 782 nM
- IC50 (second compound 10 µM): 2850 nM
- viability, T/C (second compound 0.1 µM, first compound 0.00949 µM): 96.4%
- viability, T/C (second compound 0.1 µM, first compound 0.03 µM): 83.9%
- viability, T/C (second compound 0.1 µM, first compound 0.0949 µM): 81.7%
- viability, T/C (second compound 0.1 µM, first compound 0.3 µM): 62.8%
- viability, T/C (second compound 0.1 µM, first compound 0.949 µM): 55.7%
- viability, T/C (second compound 0.1 µM, first compound 3 µM): 46.9%
- viability, T/C (second compound 0.316 µM, first compound 0.00949 µM): 95.8%
- viability, T/C (second compound 0.316 µM, first compound 0.03 µM): 85.1%
- viability, T/C (second compound 0.316 µM, first compound 0.0949 µM): 73.9%
- viability, T/C (second compound 0.316 µM, first compound 0.3 µM): 55.6%
- viability, T/C (second compound 0.316 µM, first compound 0.949 µM): 55.2%
- viability, T/C (second compound 0.316 µM, first compound 3 µM): 42.9%
- viability, T/C (second compound 1 µM, first compound 0.00949 µM): 78.1%
- viability, T/C (second compound 1 µM, first compound 0.03 µM): 76.9%
- viability, T/C (second compound 1 µM, first compound 0.0949 µM): 72.4%
- viability, T/C (second compound 1 µM, first compound 0.3 µM): 68.4%
- viability, T/C (second compound 1 µM, first compound 0.949 µM): 51.1%
- viability, T/C (second compound 1 µM, first compound 3 µM): 42.6%
- viability, T/C (second compound 3.16 µM, first compound 0.00949 µM): 87.7%
- viability, T/C (second compound 3.16 µM, first compound 0.03 µM): 85%
- viability, T/C (second compound 3.16 µM, first compound 0.0949 µM): 72.5%
- viability, T/C (second compound 3.16 µM, first compound 0.3 µM): 59.9%
- viability, T/C (second compound 3.16 µM, first compound 0.949 µM): 45.6%
- viability, T/C (second compound 3.16 µM, first compound 3 µM): 46.9%
- viability, T/C (second compound 10 µM, first compound 0.00949 µM): 105%
- viability, T/C (second compound 10 µM, first compound 0.03 µM): 94%
- viability, T/C (second compound 10 µM, first compound 0.0949 µM): 88.6%
- viability, T/C (second compound 10 µM, first compound 0.3 µM): 87.3%
- viability, T/C (second compound 10 µM, first compound 0.949 µM): 64.8%
- viability, T/C (second compound 10 µM, first compound 3 µM): 49%

Source: PubChem BioAssay AID1963436 (Molecular Pharmacology Branch, DTP, NCI, 2024)
